# According to PubChem BioAssay AID276 (DTP/NCI, 2004):
# Values joined by “and” are separate entries in the source; they are usually repeats but may differ in a detail not shown here. Equal values may be shown once. Toxic doses and inconclusive results are not listed.
# System: B6C3F1 mice, Lewis lung carcinoma iv, survival T/C
# Experiment: NCI In Vivo Anticancer Drug Screen. Data for tumor model Lewis Lung Carcinoma (intravenous) in B6C3F1 mice
# Conditions: endpoint: median survival time, schedule: Q01DX009 (ip), higher = longer survival
# How it was run: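 Read-out is survival, expressed as the treated-group measurement over the vehicle control-group measurement. Animals bore a transplantable tumor and were given compound.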
# [1] = dose: 6.25 mg/kg/injection, vehicle: water
# [2] = dose: 12.5 mg/kg/injection, vehicle: water
# [3] = dose: 25.0 mg/kg/injection, vehicle: water
# [4] = dose: 100.0 mg/kg/injection, vehicle: water
# [5] = dose: 25.0 mg/kg/injection, vehicle: saline
# [6] = dose: 50.0 mg/kg/injection, vehicle: saline
# [7] = dose: 100.0 mg/kg/injection, vehicle: saline
# [8] = dose: 200.0 mg/kg/injection, vehicle: saline
# [9] = dose: 1.25 mg/kg/injection, vehicle: Klucel (hydroxypropylcellulose) (HPC)
# [10] = dose: 2.5 mg/kg/injection, vehicle: Klucel (hydroxypropylcellulose) (HPC)
# [11] = dose: 5.0 mg/kg/injection, vehicle: Klucel (hydroxypropylcellulose) (HPC)
# [12] = dose: 10.0 mg/kg/injection, vehicle: Klucel (hydroxypropylcellulose) (HPC)
# [13] = dose: 12.5 mg/kg/injection, vehicle: saline
# [14] = dose: 12.5 mg/kg/injection, vehicle: saline with Tween-80
# [15] = dose: 25.0 mg/kg/injection, vehicle: saline with Tween-80
# [16] = dose: 50.0 mg/kg/injection, vehicle: saline with Tween-80
# [17] = dose: 100.0 mg/kg/injection, vehicle: saline with Tween-80
smiles,measurement,setting,value
CO[C@H](/C(C)=C/C=C/C(C)=C/c1coc(C)n1)[C@H](C)[C@H]1C[C@@H](O)[C@@]2(C)O[C@H]2/C=C/[C@@H](C)[C@@H]2C[C@@H](CC(=O)O2)C[C@H]2O[C@@H]2C(=O)O1,T/C,"dose: 20.0 micrograms/kg/injection, vehicle: Klucel (hydroxypropylcellulose) (HPC)",96 % of control
same,T/C,"dose: 40.0 micrograms/kg/injection, vehicle: Klucel (hydroxypropylcellulose) (HPC)",103 % of control
same,T/C,"dose: 80.0 micrograms/kg/injection, vehicle: Klucel (hydroxypropylcellulose) (HPC)",105 % of control
Nc1cc(Cl)c2[nH]cnc2n1,T/C,[1],94 % of control
same,T/C,[2],98 % of control
same,T/C,[3],100 % of control
same,T/C,"dose: 50.0 mg/kg/injection, vehicle: water",107 % of control
same,T/C,[4],109 % of control
same,T/C,"dose: 200.0 mg/kg/injection, vehicle: water",100 % of control
CC(=O)CC(=O)CCC(=O)O,T/C,[5],98 % of control
same,T/C,[6],103 % of control
same,T/C,[7],102 % of control
same,T/C,[8],105 % of control
Cc1c(N)nc([C@H](CC(N)=O)NC[C@H](N)C(N)=O)nc1C(=O)N[C@H](C(=O)N[C@H](C)[C@@H](O)[C@H](C)C(=O)N[C@H](C(=O)NCCc1nc(-c2nc(C(=O)NCCC[S+](C)C)cs2)cs1)[C@@H](C)O)C(OC1OC(CO)C(O)C(O)C1OC1OC(CO)C(O)C(OC(N)=O)C1O)c1cnc[nH]1 (stereo partly drawn),T/C,"dose: 1.0 mg/kg/injection, vehicle: saline",113 % of control
same,T/C,"dose: 2.0 mg/kg/injection, vehicle: saline",97 % of control and 104 % of control and 112 % of control
O=C1NC(=O)NC(C(=O)O)N1,T/C,"dose: 50.0 mg/kg/injection, vehicle: DMSO",101 % of control
same,T/C,"dose: 100.0 mg/kg/injection, vehicle: DMSO",105 % of control
same,T/C,"dose: 200.0 mg/kg/injection, vehicle: DMSO",98 % of control
same,T/C,"dose: 400.0 mg/kg/injection, vehicle: DMSO",110 % of control
C=CC(C)(C)n1cc(C2=C(O)C(=O)C(c3cn(C(C)(C)C=C)c4ccccc34)=C(O)C2=O)c2ccccc21,T/C,[9],105 % of control
same,T/C,[10],110 % of control
same,T/C,[11],106 % of control
same,T/C,[12],100 % of control
same,T/C,"dose: 20.0 mg/kg/injection, vehicle: Klucel (hydroxypropylcellulose) (HPC)",114 % of control
same,T/C,"dose: 40.0 mg/kg/injection, vehicle: Klucel (hydroxypropylcellulose) (HPC)",119 % of control
Cc1nnc2ncccn12,T/C,[13],104 % of control
same,T/C,[5],110 % of control
same,T/C,[6],101 % of control
same,T/C,[7],96 % of control
same,T/C,"dose: 400.0 mg/kg/injection, vehicle: saline",103 % of control
CC[C@@H](C)[C@@H]1NC(=O)C(NC(=O)C(CC(C)C)N(C)C(=O)C2CCCN2C(=O)C(C)O)C(C)OC(=O)C(Cc2ccc(OC)cc2)N(C)C(=O)C2CCCN2C(=O)C(CC(C)C)NC(=O)C(C)C(=O)C(C(C)C)OC(=O)C[C@H]1O (stereo partly drawn),T/C,"dose: 25.0 micrograms/kg/injection, vehicle: distilled water + alcohol",96 % of control
same,T/C,"dose: 50.0 micrograms/kg/injection, vehicle: distilled water + alcohol",102 % of control
same,T/C,"dose: 100.0 micrograms/kg/injection, vehicle: distilled water + alcohol",98 % of control
same,T/C,"dose: 200.0 micrograms/kg/injection, vehicle: distilled water + alcohol",96 % of control
same,T/C,"dose: 400.0 micrograms/kg/injection, vehicle: distilled water + alcohol",98 % of control
NC(=S)c1ncn(C2OC(CO)C(O)C2O)c1N (stereo not drawn),T/C,"dose: 12.5 mg/kg/injection, vehicle: suspension in saline",100 % of control
same,T/C,"dose: 25.0 mg/kg/injection, vehicle: suspension in saline",99 % of control
same,T/C,"dose: 50.0 mg/kg/injection, vehicle: suspension in saline",106 % of control
same,T/C,"dose: 100.0 mg/kg/injection, vehicle: suspension in saline",110 % of control
same,T/C,"dose: 200.0 mg/kg/injection, vehicle: suspension in saline",116 % of control
CC(=O)C1=C(O)C2(O)C(=O)c3c(c(C)c4ccc(C)c(O)c4c3O)CC2C(N)C1=O (stereo not drawn),T/C,"dose: 3.75 mg/kg/injection, vehicle: saline + alcohol",95 % of control and 105 % of control
same,T/C,"dose: 7.3 mg/kg/injection, vehicle: saline + alcohol",102 % of control
same,T/C,"dose: 7.5 mg/kg/injection, vehicle: saline + alcohol",95 % of control
same,T/C,"dose: 15.0 mg/kg/injection, vehicle: saline + alcohol",102 % of control and 107 % of control
same,T/C,"dose: 30.0 mg/kg/injection, vehicle: saline + alcohol",98 % of control and 107 % of control
same,T/C,"dose: 60.0 mg/kg/injection, vehicle: saline + alcohol",102 % of control and 110 % of control
same,T/C,"dose: 120.0 mg/kg/injection, vehicle: saline + alcohol",112 % of control
NC(=O)c1c[se]c(C2OC(CO)C(O)C2O)n1 (stereo not drawn),T/C,"dose: 0.75 mg/kg/injection, vehicle: water",107 % of control
same,T/C,"dose: 1.5 mg/kg/injection, vehicle: water",110 % of control
same,T/C,"dose: 3.0 mg/kg/injection, vehicle: water",152 % of control and 153 % of control
same,T/C,"dose: 6.0 mg/kg/injection, vehicle: water",297 % of control
same,T/C,"dose: 12.0 mg/kg/injection, vehicle: water",297 % of control and 355 % of control
same,T/C,"dose: 13.0 mg/kg/injection, vehicle: water",315 % of control
same,T/C,"dose: 24.0 mg/kg/injection, vehicle: water",297 % of control
same,T/C,[3],355 % of control
same,T/C,"dose: 33.0 mg/kg/injection, vehicle: water",94 % of control
same,T/C,"dose: 75.0 mg/kg/injection, vehicle: water",315 % of control
same,T/C,[4],120 % of control
CC(=O)OCC1OC([S-])C(OC(C)=O)C(OC(C)=O)C1OC(C)=O.CC[PH+](CC)CC.CC[PH+](CC)CC.[Au].[Au] (stereo not drawn),T/C,"dose: 0.62 mg/kg/injection, vehicle: Klucel (hydroxypropylcellulose) (HPC)",91 % of control and 104 % of control
same,T/C,[9],98 % of control and 106 % of control
same,T/C,[10],100 % of control and 109 % of control
same,T/C,[11],101 % of control
same,T/C,[12],102 % of control and 104 % of control
N=c1ccc2nc3ccc(N)cc3sc-2c1,T/C,[1],113 % of control
same,T/C,[2],117 % of control
same,T/C,[3],93 % of control
CC(=O)OCC1OC(n2ccc(N)nc2=O)C(OC(C)=O)C1OC(C)=O (stereo not drawn),T/C,[13],92 % of control
same,T/C,[5],100 % of control
same,T/C,[6],101 % of control
same,T/C,[7],115 % of control
same,T/C,[8],115 % of control
O=S(=O)(N=N/C=C1\C=CC=CN1O)c1cccs1,T/C,[14],111 % of control
same,T/C,[15],103 % of control
same,T/C,[16],103 % of control
same,T/C,[17],107 % of control
O=C(O)C1Cc2nc[nH]c2CN1CO (stereo not drawn),T/C,[14],109 % of control
same,T/C,[15],104 % of control
same,T/C,[16],99 % of control
same,T/C,[17],114 % of control
same,T/C,"dose: 200.0 mg/kg/injection, vehicle: saline with Tween-80",103 % of control
same,T/C,"dose: 400.0 mg/kg/injection, vehicle: saline with Tween-80",98 % of control
CN(C)CCOc1ccc2c(c1)C/C(=C/c1ncc([N+](=O)[O-])n1C)C2=O,T/C,"dose: 6.25 mg/kg/injection, vehicle: saline with Tween-80",102 % of control
same,T/C,[14],88 % of control
same,T/C,[15],104 % of control
same,T/C,[16],100 % of control
Cc1cc(NC(=S)SCc2ccc3c(c2)OCO3)ccc1Cl,T/C,"dose: 25.0 mg/kg/injection, vehicle: Klucel (hydroxypropylcellulose) (HPC)",114 % of control
same,T/C,"dose: 50.0 mg/kg/injection, vehicle: Klucel (hydroxypropylcellulose) (HPC)",114 % of control
same,T/C,"dose: 100.0 mg/kg/injection, vehicle: Klucel (hydroxypropylcellulose) (HPC)",115 % of control
